These results are taken from publication PMC7139405, “Real-Time 3D Imaging and Inhibition Analysis of Various Amyloid Aggregations Using Quantum Dots” (International Journal of Molecular Sciences, 2020).

One test deals with T1, Amyloid β (Aβ42) (Homo sapiens, UniProt P05067).
T1 construct: gene APP
In words: aggregation inhibition of isolated peptide, quantum-dot fluorescence imaging (MSHTS). The test is classed as biochemical. From the text: aggregation inhibition of isolated peptide, quantum-dot fluorescence imaging (MSHTS) on Amyloid β (Aβ42) | RA inhibited the aggregation of Aβ and α-synuclein proteins in vitro in a dose-dependent manner

The target of another test is T2, α-synuclein (Homo sapiens, UniProt P37840).
T2 construct: gene SNCA
Kind of test: aggregation inhibition of purified protein, quantum-dot fluorescence imaging (MSHTS). The format is biochemical.

Molecules are shown by their SMILES. pEC50: −log10 of the molar value.

T1 sequence (P05067 672-713): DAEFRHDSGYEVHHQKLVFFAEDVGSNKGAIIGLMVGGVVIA

As to `O=C(/C=C/c1ccc(O)c(O)c1)O[C@H](Cc1ccc(O)c(O)c1)C(=O)O` [RA, rosmarinic acid], the negative-log EC50 (pEC50) (as a rule, the negative decadic logarithm of the EC50, by convention in mol/L) at Amyloid β (Aβ42) is 4.69; at α-synuclein it was 5.68.
